Columns and labels:
Type in all cases: functional
[1] = tested on: T47D; experiment: Growth inhibition of human T47D cells assessed as cell growth at 10 uM incubated for 48 hrs by sulforhodamine B assay relative to control; settings: read-out: Activity
[2] = tested on: SK-OV-3; experiment: Growth inhibition of human SKOV3 cells assessed as cell growth at 10 uM incubated for 48 hrs by sulforhodamine B assay relative to control; settings: SK-OV-3, 48 h, read-out: Activity
[3] = tested on: SNB-75; experiment: Growth inhibition of human SNB75 cells assessed as cell growth at 10 uM incubated for 48 hrs by sulforhodamine B assay relative to control; settings: SNB-75, 48 h, read-out: Activity
[4] = tested on: OVCAR-4; experiment: Growth inhibition of human OVCAR4 cells assessed as cell growth at 10 uM incubated for 48 hrs by sulforhodamine B assay relative to control; settings: OVCAR-4, 48 h, read-out: Activity
[5] = tested on: MDA-MB-435; experiment: Growth inhibition of human MDA-MB-435 cells assessed as cell growth at 10 uM incubated for 48 hrs by sulforhodamine B assay relative to control; settings: MDA-MB-435, 48 h, read-out: Activity
[6] = tested on: SK-MEL-2; experiment: Growth inhibition of human SK-MEL-2 cells assessed as cell growth at 10 uM incubated for 48 hrs by sulforhodamine B assay relative to control; settings: SK-MEL-2, 48 h, read-out: Activity
[7] = tested on: COLO 205; experiment: Growth inhibition of human COLO205 cells assessed as cell growth at 10 uM incubated for 48 hrs by sulforhodamine B assay relative to control; settings: COLO 205, 48 h, read-out: Activity
[8] = tested on: DU-145; experiment: Growth inhibition of human DU145 cells assessed as cell growth at 10 uM incubated for 48 hrs by sulforhodamine B assay relative to control; settings: DU-145, 48 h, read-out: Activity
[9] = tested on: SN12C; experiment: Growth inhibition of human SN12C cells assessed as cell growth at 10 uM incubated for 48 hrs by sulforhodamine B assay relative to control; settings: read-out: Activity
[10] = tested on: MDA-MB-468; experiment: Growth inhibition of human MDA-MB-468 cells assessed as cell growth at 10 uM incubated for 48 hrs by sulforhodamine B assay relative to control; settings: MDA-MB-468, 48 h, read-out: Activity
[11] = tested on: UO-31; experiment: Growth inhibition of human UO31 cells assessed as cell growth at 10 uM incubated for 48 hrs by sulforhodamine B assay relative to control; settings: UO-31, 48 h, read-out: Activity
[12] = tested on: U-251; experiment: Growth inhibition of human U251 cells assessed as cell growth at 10 uM incubated for 48 hrs by sulforhodamine B assay relative to control; settings: U-251, 48 h, read-out: Activity
[13] = tested on: Malme-3M; experiment: Growth inhibition of human MALME-3M cells assessed as cell growth at 10 uM incubated for 48 hrs by sulforhodamine B assay relative to control; settings: read-out: Activity
[14] = tested on: SK-MEL-28; experiment: Growth inhibition of human SK-MEL-28 cells assessed as cell growth at 10 uM incubated for 48 hrs by sulforhodamine B assay relative to control; settings: SK-MEL-28, 48 h, read-out: Activity
[15] = tested on: MDA-MB-231; experiment: Growth inhibition of human MDA-MB-231 cells assessed as cell growth at 10 uM incubated for 48 hrs by sulforhodamine B assay relative to control; settings: MDA-MB-231, 48 h, read-out: Activity
[16] = tested on: HOP-92; experiment: Growth inhibition of human HOP92 cells assessed as cell growth at 10 uM incubated for 48 hrs by sulforhodamine B assay relative to control; settings: HOP-92, 48 h, read-out: Activity
[17] = tested on: CAKI-1; experiment: Growth inhibition of human Caki1 cells assessed as cell growth at 10 uM incubated for 48 hrs by sulforhodamine B assay relative to control; settings: CAKI-1, 48 h, read-out: Activity
[18] = tested on: HOP-62; experiment: Growth inhibition of human HOP62 cells assessed as cell growth at 10 uM incubated for 48 hrs by sulforhodamine B assay relative to control; settings: HOP-62, 48 h, read-out: Activity
[19] = tested on: PC-3; experiment: Growth inhibition of human PC3 cells assessed as cell growth at 10 uM incubated for 48 hrs by sulforhodamine B assay relative to control; settings: PC-3, 48 h, read-out: Activity
[20] = tested on: Hs-578T; experiment: Growth inhibition of human Hs 578T cells assessed as cell growth at 10 uM incubated for 48 hrs by sulforhodamine B assay relative to control; settings: read-out: Activity
[21] = tested on: NCI/ADR-RES; experiment: Growth inhibition of human NCI/ADR-RES cells assessed as cell growth at 10 uM incubated for 48 hrs by sulforhodamine B assay relative to control; settings: read-out: Activity
[22] = tested on: NCI-H226; experiment: Growth inhibition of human NCI-H226 cells assessed as cell growth at 10 uM incubated for 48 hrs by sulforhodamine B assay relative to control; settings: NCI-H226, 48 h, read-out: Activity
[23] = tested on: BT-549; experiment: Growth inhibition of human BT549 cells assessed as cell growth at 10 uM incubated for 48 hrs by sulforhodamine B assay relative to control; settings: BT-549, 48 h, read-out: Activity
[24] = tested on: NCI-H322M; experiment: Growth inhibition of human NCI-H322M cells assessed as cell growth at 10 uM incubated for 48 hrs by sulforhodamine B assay relative to control; settings: read-out: Activity
[25] = tested on: TK-10; experiment: Growth inhibition of human TK10 cells assessed as cell growth at 10 uM incubated for 48 hrs by sulforhodamine B assay relative to control; settings: TK-10, 48 h, read-out: Activity
[26] = tested on: LOX IMVI; experiment: Growth inhibition of human LOXIMVI cells assessed as cell growth at 10 uM incubated for 48 hrs by sulforhodamine B assay relative to control; settings: read-out: Activity
[27] = tested on: ACHN; experiment: Growth inhibition of human ACHN cells assessed as cell growth at 10 uM incubated for 48 hrs by sulforhodamine B assay relative to control; settings: read-out: Activity
[28] = tested on: RPMI-8226; experiment: Growth inhibition of human RPMI8226 cells assessed as cell growth at 10 uM incubated for 48 hrs by sulforhodamine B assay relative to control; settings: RPMI-8226, 48 h, read-out: Activity
[29] = tested on: SK-MEL-5; experiment: Growth inhibition of human SK-MEL-5 cells assessed as cell growth at 10 uM incubated for 48 hrs by sulforhodamine B assay relative to control; settings: SK-MEL-5, 48 h, read-out: Activity
[30] = tested on: M14; experiment: Growth inhibition of human M14 cells assessed as cell growth at 10 uM incubated for 48 hrs by sulforhodamine B assay relative to control; settings: M14, 48 h, read-out: Activity
[31] = tested on: OVCAR-3; experiment: Growth inhibition of human OVCAR3 cells assessed as cell growth at 10 uM incubated for 48 hrs by sulforhodamine B assay relative to control; settings: OVCAR-3, 48 h, read-out: Activity
[32] = tested on: NCI-H23; experiment: Growth inhibition of human NCI-H23 cells assessed as cell growth at 10 uM incubated for 48 hrs by sulforhodamine B assay relative to control; settings: NCI-H23, 48 h, read-out: Activity
[33] = tested on: SF-268; experiment: Growth inhibition of human SF268 cells assessed as cell growth at 10 uM incubated for 48 hrs by sulforhodamine B assay relative to control; settings: SF-268, 48 h, read-out: Activity

Compound	growth at 10 µM [1]	growth at 10 µM [2]	growth at 10 µM [3]	growth at 10 µM [4]	growth at 10 µM [5]	growth at 10 µM [6]	growth at 10 µM [7]	growth at 10 µM [8]	growth at 10 µM [9]	growth at 10 µM [10]	growth at 10 µM [11]	growth at 10 µM [12]	growth at 10 µM [13]	growth at 10 µM [14]	growth at 10 µM [15]	growth at 10 µM [16]	growth at 10 µM [17]	growth at 10 µM [18]	growth at 10 µM [19]	growth at 10 µM [20]	further results
CCCCOc1nc2ccc(OC)cc2cc1C1CNC(=O)c2ccccc2N1 (centres undefined)	94.1%	89.3%	89.5%	99.3%	104%	88.7%	106%	108%	91.5%	96.8%	78.1%	106%	123%	102%	83.6%	90.4%	77.7%	96%	86.6%	105%	growth at 10 µM [21]: 109%; growth at 10 µM [22]: 87.1%; growth at 10 µM [23]: 98.1%; growth at 10 µM [24]: 110%; growth at 10 µM [25]: 97%; growth at 10 µM [26]: 104%; growth at 10 µM [27]: 97.3%; growth at 10 µM [28]: 88.9%; growth at 10 µM [29]: 86.9%; growth at 10 µM [30]: 99%; growth at 10 µM [31]: 101%; growth at 10 µM [32]: 99.2%; growth at 10 µM [33]: 99%
CCCCOc1nc2ccccc2cc1C1CNC(=O)c2ccccc2N1 (centres undefined)	20.9%	14.8%	3.14%	47.7%	-63.8%	15.7%	9.84%	10.7%	44.1%	-1.81%	41.3%	18.6%	45.6%	45.8%	47.5%	48.9%	42.6%	23%	24.7%	34.1%	growth at 10 µM [21]: 3.84%; growth at 10 µM [22]: 0.7%; growth at 10 µM [23]: 41%; growth at 10 µM [24]: 47.2%; growth at 10 µM [25]: 34.3%; growth at 10 µM [26]: 27.1%; growth at 10 µM [27]: 46.7%; growth at 10 µM [28]: 25.6%; growth at 10 µM [29]: 15.6%; growth at 10 µM [30]: -23.1%; growth at 10 µM [31]: -9.73%; growth at 10 µM [32]: 23.8%; growth at 10 µM [33]: 43.6%
O=C1NCC(c2cc3ccc(Cl)cc3[nH]c2=O)Nc2ccccc21 (centres undefined)	66.5%	77.8%	84.3%	94%	104%	103%	94.9%	110%	111%	96.5%	88.7%	88.9%	93.4%	105%	118%	74%	101%	81.3%	87.1%	113%	growth at 10 µM [21]: 99.4%; growth at 10 µM [22]: 79.7%; growth at 10 µM [23]: 99.9%; growth at 10 µM [24]: 98%; growth at 10 µM [25]: 83%; growth at 10 µM [26]: 96.3%; growth at 10 µM [27]: 101%; growth at 10 µM [28]: 119%; growth at 10 µM [29]: 102%; growth at 10 µM [30]: 96.8%; growth at 10 µM [31]: 109%; growth at 10 µM [32]: 94%; growth at 10 µM [33]: 106%
